Results reported in patent publication US11634466B2, “Musclin peptides and methods of use thereof” (UNIVERSITY OF IOWA RESEARCH FOUNDATION, priority 2016, dated 2023).

Tests used:
[1] = tested on: WT and Ostn-KO mice; experiment: Voluntary exercise performance on running wheels during musclin infusion; format: in vivo
Procedure: (§1) Whole body composition was obtained by time-domain nuclear magnetic resonance under isoflurane anesthesia (Bruker Minispec; Billerica, Mass.). Osmotic pumps: Osmotic pumps (model 1004, 100 μl volume, 0.11 μl/hr release rate, 28 days duration, Alzet Durect, Cupertino, Calif.), loaded with saline vs. 50 μg of mouse musclin peptide (SFSGFGSPLDRLSAG SVEHRGKQRKAVDHSKKR (SEQ ID NO: 4), corresponding to amino acids 80-112, Gen Bank ID: AAS87598.1, synthesized by Biosynthesis, Lewisville, Tex.) were surgically implanted within the peritoneal cavity of mice under sterile conditions and general anesthesia. Mice recovered for 7 days before exercise testing was performed.
Mice were housed in individual cages with free access to attached running wheels (Columbus Instruments, Columbus, Ohio). Running distance was calculated as 1/6πD·ΣRMPi, where D is wheel diameter and ΣRMPi is sum of averaged RPM values.

[2] = Plasma musclin level by custom ELISA after osmotic pump infusion of musclin; format: in vivo; conditions: WT mice, musclin 1 ng/g/h i.p. by osmotic pump for 7 d
Procedure: as §1
Terminal blood collection was performed by direct cardiac puncture.
96-well ELISA Maxisorp plates (Nunc) were coated with custom rabbit anti-musclin IgG (Anaspec) at 1 μg/well in BupH carbonate-bicarbonate buffer, pH 9.4 (Thermo Scientific) at 4° C. overnight. On the next day plates were washed with TBS/0.05% Tween 20 and blocked with 5% BSA/TBS for 1 hr at room temperature. Synthetic musclin peptide was used as a standard (NH2-sfsgfgspldrlsagsvehrgkqrkavdhskkr-COOH (SEQ ID NO: 28), corresponding to amino acids 80-112, Gen Bank ID: AAS87598.1, synthesized by Biosynthesis, Lewisville, Tex.). […] Fluorescence was detected at 325/420 nm.

[3] = Ostn-KO mice treated with musclin by osmotic pump, night, n=4
[4] = WT mice treated with musclin by osmotic pump, night, n=5

## H-SFSGFGSPLDRLSAGSVEHRGKQRKAVDHSKKR-OH [musclin]
[1]; Ostn-KO mice treated with musclin by osmotic pump, n=4
  night-time mean velocity, voluntary running wheel: 53±15 rotations/5 min.
[1]; [3]
  distance run, voluntary running wheel: 2290±632 meters
  duration of running, voluntary running wheel: 333 ± 53 min
[1]; [4]
  distance, voluntary running wheel: 2202±280 meters
  duration, voluntary running wheel: 336 ± 39 min
  mean velocity, voluntary running wheel: 51±7 rotations/5 min.
[2]
  plasma level induced by musclin infusion: comparable with that observed after exercise training
